The first assay addresses T1, TRK A, B & C kinase.
T1 construct: fused on or other part: Carna's Trk kinases are usually GST-tagged cytoplasmic domains
Briefly: TRK A, B & C kinase assay (ADP-Glo / HTRF KinEASE-TK). It is filed as biochemical. Particulars: ADP-Glo or HTRF KinEASE-TK kit, isoform not specified, read-out: IC50 (nM) Enzymatic assay. As to the method: ADP-Glo assay kit was purchased from Promega. poly (Glu, Tyr), Magnesium sulfate, Bovine serum albumin (BSA) and dimethylsulfoxide(DMSO) were purchased from Sigma-Aldrich. Tris-HCl buffer was purchased from BD Gentest. HTRF KinEASE-TK kit was purchased from cisbio. TRK A, B & C kinase was purchased from Carna bioscience.
Kinase assay was performed for Chemical Compounds 1-61 using two methods using luminescent ADP-Glo assay kit (Promega) and HTRF KinEASE-TK assay kit (cisbio). The luminescent ADP-Glo assay kit (Promega) measures ADP formed from a kinase reaction. ADP converted into ATP, which is then converted into light by Ultra-Glo luciferase. The HTRF KinEASE-TK assay kit (cisbio) measures tyrosine kinase activities using one substrate and a universal detection system.
ADP-Glo Assay Kit (Promega)
The protein kinase assay was performed for Chemical Compounds 1-61 at […] concentrations are 0.4 ng/ul of TrKA, 0.5 ng/ul of TrKB and 3 ng/ul of TrKC, respectively), 5 μL of 1 ug/ul stock solution of poly(glu, Tyr), 5 μL of compounds or assay buffer, 5 μL of ATP (125 μM stock solution).
The assay was started by incubating the reaction mixture in a 96-well plate at 30° C. for 1 hr. After the incubation, the assay was terminated by the addition of 25 […] Detection Reagent was added, and the 96-well plate was shaken and then incubated for additional 30 min at ambient temperature. The 96-well reaction plate was then read on an Enspire plate reader. The IC50 values were derived through a curve fitting using SigmaPlot.
HTRF KinEASE-TK Assay Kit (Cisbio)
The HTRF KinEASE-TK assay was performed for Chemical Compounds 1-61 in 384-well low volume microplate (Greiner). The HTRF KinEASE-TK assay format involves the two steps. The first step is kinase reaction step. This kinase reaction step was performed at RT (room temperature) in final volume of 10 ul according to the following assay reaction recipe: 10 ul of kinase mixture (Kinase (2 ul)+ATP (2 ul)+Substrate (2 ul)+Compound (4 ul)). Kinase final concentrations were 0.3 ng/ul of TRKA, 0.1 ng/ul of TRKB, 0.03 ng/ul of TRKC, respectively. ATP final concentrations were 14.7 uM (TRKA), 4.77 uM (TRKB), 25.6 uM (TRKC) respectively. TK-substrate final concentration was 0.3 ng/ul. The mixtures exposed to Dose response concentration (DRC) compound from 0 to 100 nM for 40 min. During the kinase reaction step, the kinase reaction was started by the addition of ATP. Kinase phosphorylates the substrate.
The second is detection step. 10 ul of detection reagents (5 ul Sa-XL 665 in EDTA+5 ul TK Antibody-Eu in EDTA) was added to kinase mixture. This step was performed at room temperature for 1 hr. The detection reagent detects phosphorylated substrates.
Finally 384-well reaction plate was then read on FlexStation 3 machine. The fluorescence was measured at 620 nm (Cryptate) and 665 nm (XL665). A ratio is calculated ([…]/620)×10^4 for each well. The IC50 value was derived through a curve fitting using GraphPad Prism. Table 1 below includes the results of the assays.
For orientation: ADP-Glo turns the ADP formed in a reaction into a luminescent signal.
As a reminder, the IC50 is the point on the concentration scale where inhibition reaches its midpoint. For `Fc1ccc(F)c([C@H]2CCCN2c2ccn3ncc(-c4nnc(N5CCNCC5)o4)c3n2)c1` [Chemical Compound 18, (R)-2-(5-(2-(2,5-difluorophenyl)pyrrolidin-1-yl)pyrazolo[1,5-a]pyrimidin-3-yl)-5-(piperazin-1-yl)-1,3,4-oxadiazole], the IC50 was above 100 nM.

Take `Fc1ccc(F)c([C@H]2CCCN2c2ccn3ncc(-c4nnc(-c5cn[nH]c5)s4)c3n2)c1` [Chemical Compound 19, (R)-2-(5-(2-(2,5-difluorophenyl)pyrrolidin-1-yl)pyrazolo[1,5-a]pyrimidin-3-yl)-5-(1H-pyrazol-4-yl)-1,3,4-thiadiazole]: the 50% inhibitory concentration (IC50) was below 10 nM.

For the compound `Fc1ccc(F)c([C@H]2CCCN2c2ccn3ncc(-c4nnc(-c5cc[nH]n5)s4)c3n2)c1` [Chemical Compound 20, (R)-2-(5-(2-(2,5-difluorophenyl)pyrrolidin-1-yl)pyrazolo[1,5-a]pyrimidin-3-yl)-5-(1H-pyrazol-3-yl)-1,3,4-thiadiazole], the IC50 is above 100 nM.

On to `O=C(Nc1nnc(-c2cnn3ccc(N4CCC[C@@H]4c4cc(F)ccc4F)nc23)s1)c1ccccc1` [Chemical Compound 21, (R)—N-(5-(5-(2-(2,5-difluorophenyl)pyrrolidin-1-yl)pyrazolo[1,5-a]pyrimidin-3-yl)-1,3,4-thiadiazol-2-yl)benzamide], for which the IC50 is above 100 nM.

On to `Fc1ccc(F)c([C@H]2CCCN2c2ccn3ncc(-c4nnc(N5CCNCC5)s4)c3n2)c1` [Chemical Compound 22, (R)-2-(5-(2-(2,5-difluorophenyl)pyrrolidin-1-yl)pyrazolo[1,5-a]pyrimidin-3-yl)-5-(piperazin-1-yl)-1,3,4-thiadiazole], for which the IC50 is below 10 nM.

Take `Fc1ccc(F)c([C@H]2CCCN2c2ccn3ncc(-c4nnc(N5CCCNCC5)s4)c3n2)c1` [Chemical Compound 23, (R)-2-(1,4-diazepan-1-yl)-5-(5-(2-(2,5-difluorophenyl)pyrrolidin-1-yl)pyrazolo[1,5-a]pyrimidin-3-yl)-1,3,4-thiadiazole]: the IC50 was below 10 nM.

On to `Fc1ccc(F)c([C@H]2CCCN2c2ccn3ncc(-c4nnc(C5CCNCC5)o4)c3n2)c1` [Chemical Compound 24, (R)-2-(5-(2-(2,5-difluorophenyl)pyrrolidin-1-yl)pyrazolo[1,5-a]pyrimidin-3-yl)-5-(piperidin-4-yl)-1,3,4-oxadiazole], for which the IC50 is below 10 nM.

On to `Fc1ccc(F)c([C@H]2CCCN2c2ccn3ncc(-c4cn(C5CCNCC5)nn4)c3n2)c1` [Chemical Compound 33, (R)-5-(2-(2,5-difluorophenyl)pyrrolidin-1-yl)-3-(1-(piperidin-4-yl)-1H-1,2,3-triazol-4-yl)pyrazolo[1,5-a]pyrimidine], for which the IC50 was below 10 nM.

For `Fc1ccc(F)c([C@H]2CCCN2c2ccn3ncc(-c4cn(C5CCCNC5)nn4)c3n2)c1` (stereo partly drawn) [Chemical Compound 34, 5-((R)-2-(2,5-difluorophenyl)pyrrolidin-1-yl)-3-(1-(piperidin-3-yl)-1H-1,2,3-triazol-4-yl)pyrazolo[1,5-a]pyrimidine], the IC50 is below 10 nM.

For the compound `Fc1ccc(F)c([C@H]2CCCN2c2ccn3ncc(-c4cn(C5CCNC5)nn4)c3n2)c1` (stereo partly drawn) [Chemical Compound 35, 5-((R)-2-(2,5-difluorophenyl)pyrrolidin-1-yl)-3-(1-(pyrrolidin-3-yl)-1H-1,2,3-triazol-4-yl)pyrazolo[1,5-a]pyrimidine], the IC50 is below 10 nM.

Consider `O=C(Cn1cc(-c2cnn3ccc(N4CCC[C@@H]4c4cc(F)ccc4F)nc23)nn1)N1CCNCC1` [Chemical Compound 37, (R)-2-(4-(5-(2-(2,5-difluorophenyl)pyrrolidin-1-yl)pyrazolo[1,5-a]pyrimidin-3-yl)-1H-1,2,3-triazol-1-yl)-1-(piperazin-1-yl)ethan-1-one], for which the IC50 was below 10 nM.

On to `O=C1CN(C(=O)/C=C/c2cnn3ccc(N4CCC[C@@H]4c4cc(F)ccc4F)nc23)CCN1` [Chemical Compound 51, (R,E)-4-(3-(5-(2-(2,5-difluorophenyl)pyrrolidin-1-yl)pyrazolo[1,5-a]pyrimidin-3-yl)acryloyl)piperazin-2-one], for which the 50% inhibitory concentration (IC50) is below 10 nM.

Consider `CC(C)(O)C1CN(C(=O)/C=C/c2cnn3ccc(N4CCC[C@@H]4c4cc(F)ccc4F)nc23)CCN1` (stereo partly drawn) [Chemical Compound 52, (E)-3-(5-((R)-2-(2,5-difluorophenyl)pyrrolidin-1-yl)pyrazolo[1,5-a]pyrimidin-3-yl)-1-(3-(2-hydroxypropan-2-yl)piperazin-1-yl)prop-2-en-1-one], for which the IC50 was below 10 nM.

Regarding `CN1CCN(C(=O)/C=C/c2cnn3ccc(N4CCC[C@@H]4c4cc(F)ccc4F)nc23)CC1` [Chemical Compound 53, (R,E)-3-(5-(2-(2,5-difluorophenyl)pyrrolidin-1-yl)pyrazolo[1,5-a]pyrimidin-3-yl)-1-(4-methylpiperazin-1-yl)prop-2-en-1-one], the IC50 is below 10 nM.

For `CC(C)N1CCN(C(=O)/C=C/c2cnn3ccc(N4CCC[C@@H]4c4cc(F)ccc4F)nc23)CC1` [Chemical Compound 55, (R,E)-3-(5-(2-(2,5-difluorophenyl)pyrrolidin-1-yl)pyrazolo[1,5-a]pyrimidin-3-yl)-1-(4-isopropylpiperazin-1-yl)prop-2-en-1-one], the IC50 was below 10 nM.

Regarding `O=C(/C=C/c1cnn2ccc(N3CCC[C@@H]3c3cc(F)ccc3F)nc12)N1CCCNCC1` [Chemical Compound 56, (R,E)-1-(1,4-diazepan-1-yl)-3-(5-(2-(2,5-difluorophenyl)pyrrolidin-1-yl)pyrazolo[1,5-a]pyrimidin-3-yl)prop-2-en-1-one], the concentration for half-maximal inhibition (IC50) is above 100 nM.

Consider “(R,E)-3-(5-(2-(2,5-difluorophenyl)pyrrolidin-1-yl)pyrazolo[1,5-a]pyrimidin-3-yl)-1-(4-ethylpiperazin-1-yl)prop-2-en-1-one [Chemical Compound 54]”, for which the IC50 was above 100 nM.

The subject of another assay is KM12-luc cells. Briefly: Cell proliferation assay (KM12). To be noted: 72 hours exposure, read-out: IC50 (nM) Cell-based assay (KM12). How it is done:
Doxorubicin was purchased from Sigma Aldrich (D1515). All compounds were diluted in DMSO (Sigma Aldrich, D2650). AlamarBlue® cell viability reagent was purchased from Thermo Scientific (88952). CellTiter 96® AQueous One Solution Cell proliferation assay was purchased from Promega. KM12-luc cells were obtained from JCRB (National Institute of Health Sciences, Tokyo, Japan). They were maintained in DMEM medium (GIB-11965-118) supplemented with 10% fetal bovine serum (Gibco, 16000-044) and MEM Non-Essential Amino Acids Solution (Thermo Scientific, 11140-050). TF-1 cells were obtained from ATCC. They were maintained in RPMI medium (GIB-A10491) supplemented with 10% fetal bovine serum (Gibco, 16000-044), GM-CSF (Thermo Scientific, 11140-050), and β-NGF (R&D systems). Trypsin/EDTA was purchased from Gibco (GIB-25300-054, 0.05%). 96-well plates were purchased from Corning Inc.
The proliferation assay was performed for Chemical Compounds 1-61 s in media supplemented with 10% FBS, using AlamarBlue® cell viability reagent or CellTiter 96® AQueous One Solution Cell proliferation assay kit. Cells were cultured in humidified 37° C. incubator with 5% CO2. To evaluate the antiproliferation activity of compounds, TF-1 cells were adjusted to GM-CSF free media (RPMI, 10% FBS, and 1% penicillin-streptomycin) for 16 hr and were seeded in 96-well plates at 30,000 cells/well with medium (RPMI, 10% FBS, 1% penicillin-streptomycin and 10 ng/ml human β-NGF). KM12-luc were seeded at 10,000 cells per well into 96-well plates. After overnight incubation, serial dilutions of compounds were added to triplicate wells, and cells were exposed for 72 hours. The final concentration of DMSO was adjusted to 0.5% in media. Quantitation of cell growth was assessed using two kinds of reagent. 20 ul of AlamarBlue® reagent in an amount equal to 10% of the culture volume was added to each well and were incubated in humidified 37° C. incubator with 5% CO2 for 2 hr. Otherwise, 20 ul of CellTiter 96® reagent was added to each well and were incubated in the same conditions as previously described. Data were plotted, and GI50 values were calculated using GraphPad software. Table 1 below includes the results of the assays.
For the compound `CN1CCN(C(=O)/C=C/c2cnn3ccc(N4CCC[C@@H]4c4cc(F)ccc4F)nc23)CC1` [Chemical Compound 53, (R,E)-3-(5-(2-(2,5-difluorophenyl)pyrrolidin-1-yl)pyrazolo[1,5-a]pyrimidin-3-yl)-1-(4-methylpiperazin-1-yl)prop-2-en-1-one], the IC50 was below 100 nM.

`CC(C)N1CCN(C(=O)/C=C/c2cnn3ccc(N4CCC[C@@H]4c4cc(F)ccc4F)nc23)CC1` [Chemical Compound 55, (R,E)-3-(5-(2-(2,5-difluorophenyl)pyrrolidin-1-yl)pyrazolo[1,5-a]pyrimidin-3-yl)-1-(4-isopropylpiperazin-1-yl)prop-2-en-1-one]: the 50% inhibitory concentration (IC50) is below 100 nM.

The record behind these values is US9701681B2, “Fused ring heteroaryl compounds and their use as Trk inhibitors” (CMG Pharmaceutical Co., Ltd., priority 2014, dated 2017).
